According to patent US20230104936A1, “TRPML MODULATORS” (Casma Therapeutics, Inc., priority 2019, published 2023):

System: TFEB
Experiment: TFEB nuclear translocation assay, HeLa wt cells
Assay type: cell-based
Details: 2 hrs compound treatment, Table 1 does not say HeLa wt or TRPML1 KO
In short: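 TFEB translocation into the nucleus of HeLa wt cells is scored by high-content immunofluorescence after 2 hrs of compound treatment at 37° C, reported as AC50.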

Structure (SMILES)	AC50 (Homo sapiens, HeLa, 2 h) [nM]	AC50 [nM]
CN(C)S(=O)(=O)c1ccc(S(=O)(=O)Nc2ccccc2N2CCC(C(=O)NC(C)(C)C)CC2)cc1 [Compound A-323, N-tert-butyl-1-{2-[4-(dimethylsulfamoyl)benzenesulfonamido]phenyl}piperidine-4-carboxamide]	2010 to 8000	–
O=S(=O)(Nc1ccccc1N1CCN(c2ccc(Cl)cc2F)CC1)N1CCOCC1 [Compound A-43, N-{2-[4-(4-chloro-2-fluorophenyl)piperazin-1-yl]phenyl}morpholine-4-sulfonamide]	≤ 2000	–
CC(c1cccc(F)c1N1CCCCC1)S(=O)(=O)c1ccc(S(=N)(=O)C(F)F)cc1 (single isomer, unassigned) [Compound A-940, (difluoromethyl)(4-((1-(3-fluoro-2-(piperidin-1-yl)phenyl)ethyl)sulfonyl)phenyl)(imino)-l6-sulfanone]	–	≤ 2000
CN(C)S(=O)(=O)c1ccc(S(=O)(=O)Nc2cccc(F)c2N2CCC3(CC2)COC(C)(C)C3)cc1 [Compound A-615]	≤ 2000	–
Cc1ccc(S(=O)(=O)Nc2ccccc2N2CC=C(c3ccc(Cl)cn3)CC2)cc1 [Compound A-88, N-(2-{5-chloro-1′,2′,3′,6′-tetrahydro-[2,4′-bipyridin]-1′-yl}phenyl)-4-methylbenzene-1-sulfonamide]	2010 to 8000	–
COc1ccc(S(=O)(=O)Nc2ccccc2N2CCC3(CC2)CN(C)c2cc(F)ccc23)cc1 [Compound A-252, N-(2-{6-fluoro-1-methyl-1,2-dihydrospiro[indole-3,4′-piperidin]-1′-yl}phenyl)-4-methoxybenzene-1-sulfonamide]	≤ 2000	–
CC(c1cccc(F)c1N1CCC(CN2CCC(F)(F)C2)CC1)S(=O)(=O)c1ccc(S(=O)(=O)N(C)C)cc1 (stereo not drawn) [Compound A-806, 4-((1-(2-(4-((3,3-difluoropyrrolidin-1-yl)methyl)piperidin-1-yl)-3-fluorophenyl)ethyl)sulfonyl)-N,N-dimethylbenzenesulfonamide]	–	≤ 2000
O=S(=O)(Nc1ccccc1N1CCC(c2ccc(F)cc2F)CC1)c1ccc(S(=O)(=O)C(F)F)cc1 [Compound A-185, 4-difluoromethanesulfonyl-N-{2-[4-(2,4-difluorophenyl)piperidin-1-yl]phenyl}benzene-1-sulfonamide]	≤ 2000	–
CN(C)S(=O)(=O)c1ccc(S(=O)(=O)Nc2nc(C3CCN(c4ccc(Cl)cc4F)CC3)cn2C)cc1 [Compound A-84, N4-{4-[1-(4-chloro-2-fluorophenyl)piperidin-4-yl]-1-methyl-1H-imidazol-2-yl}-N1,N1-dimethylbenzene-1,4-disulfonamide]	≥ 10000	–
CN(C)S(=N)(=O)c1ccc(S(=O)(=O)Nc2cc(F)ccc2N2CCC(c3c(F)cccc3F)CC2)cc1 (stereo not drawn) [Compound A-228, 4-({2-[4-(2,6-difluorophenyl)piperidin-1-yl]-5-fluorophenyl}sulfamoyl)-N,N-dimethylbenzene-1-sulfonoimidamide]	≤ 2000	–
COCC1(C)CCN(c2ccccc2C(C)S(=O)(=O)c2ccc(S(=O)(=O)N(C)C)cc2)CC1 (single isomer, unassigned; enantiomer 1) [Compound A-698, 4-((1-(2-(4-(methoxymethyl)-4-methylpiperidin-1-yl)phenyl)ethyl)sulfonyl)-N,N-dimethylbenzenesulfonamide, enantiomer 1]	≤ 2000	–
COCC(F)(F)C1CCN(c2c(F)cccc2NS(=O)(=O)c2ccc(S(=O)(=O)N(C)C)cc2)CC1 [Compound A-861, N4-{2-[4-(1,1-difluoro-2-methoxyethyl)piperidin-1-yl]-3-fluorophenyl}-N1,N1-dimethylbenzene-1,4-disulfonamide]	≤ 2000	–
CC(c1ccccc1N1CCC2(CC1)COC(C)(C)C2)S(=O)(=O)Cc1ccccc1 (stereo not drawn) [Compound A-751, 3,3-dimethyl-8-[2-(1-phenylmethanesulfonylethyl)phenyl]-2-oxa-8-azaspiro[4.5]decane]	≥ 10000	–
CN(C)S(=O)(=O)c1ccc(S(=O)(=O)Nc2ccccc2N2CCC(C)(C(C)(C)O)CC2)cc1 [Compound A-522, N1-(2-(4-(2-hydroxypropan-2-yl)-4-methylpiperidin-1-yl)phenyl)-N4,N4-dimethylbenzene-1,4-disulfonamide]	2010 to 8000	–
CN(C)S(=O)(=O)c1ccc(S(=O)(=O)Nc2ccccc2N2CCN(c3ccncc3F)CC2)cc1 [Compound A-57, N4-{2-[4-(3-fluoropyridin-4-yl)piperazin-1-yl]phenyl}-N1,N1-dimethylbenzene-1,4-disulfonamide]	2010 to 8000	–
COC(C)(C)c1ccc(S(=O)(=O)Nc2ccccc2N2CCC3(CC2)COC(C)(C)C3)cc1 [Compound A-656, N-(2-{3,3-dimethyl-2-oxa-8-azaspiro[4.5]decan-8-yl}phenyl)-4-(2-methoxypropan-2-yl)benzene-1-sulfonamide]	2010 to 8000	–
COc1ccc(S(=O)(=O)Nc2ncccc2N2CCN(c3ncc(Cl)cc3F)CC2)cc1 [Compound A-135, N-{3-[4-(5-chloro-3-fluoropyridin-2-yl)piperazin-1-yl]pyridin-2-yl}-4-methoxybenzene-1-sulfonamide]	≥ 10000	–

Structure (SMILES)	AC50 (Homo sapiens, HeLa, 2 h) [nM]	AC50 [nM]
CC(c1cccc(F)c1N1CCC(CN2C[C@H]3C[C@@H](C2)O3)CC1)S(=O)(=O)c1ccc(S(=O)(=O)N(C)C)cc1 (single isomer, unassigned) [Compound A-849]	–	2010 to 8000
CN(C)S(=O)(=O)c1ccc(S(=O)(=O)N2C(=O)N(C3CCN(c4ccc(Cl)cc4F)CC3)C(=O)C2(C)C)cc1 [Compound A-294, 4-({3-[1-(4-chloro-2-fluorophenyl)piperidin-4-yl]-5,5-dimethyl-2,4-dioxoimidazolidin-1-yl}sulfonyl)-N,N-dimethylbenzene-1-sulfonamide]	≥ 10000	–
CC(C)c1ccc(S(=O)(=O)Nc2ccccc2N2CCC3(CC2)COC(C)(C)C3)cc1 [Compound A-658, N-(2-{3,3-dimethyl-2-oxa-8-azaspiro[4.5]decan-8-yl}phenyl)-4-(propan-2-yl)benzene-1-sulfonamide]	≤ 2000	–
CN(C)S(=O)(=O)c1ccc(S(=O)(=O)Nc2ccccc2N2CCC(c3cnn(C)c3)CC2)cc1 [Compound A-60, N1,N1-dimethyl-N4-{2-[4-(1-methyl-1H-pyrazol-4-yl)piperidin-1-yl]phenyl}benzene-1,4-disulfonamide]	2010 to 8000	–
CN(C)S(=O)(=O)c1ccc(S(=O)(=O)Nc2ccccc2C#Cc2ccc(Cl)cc2F)cc1 [Compound A-3, N1-(2-((4-chloro-2-fluorophenyl)ethynyl)phenyl)-N4,N4-dimethylbenzene-1,4-disulfonamide]	≤ 2000	–
CN(C)S(=O)(=O)c1ccc(S(=O)(=O)Nc2ccccc2N2CCC(c3ccccc3C(=O)O)CC2)cc1 [Compound A-259, 2-(1-{2-[4-(dimethylsulfamoyl)benzenesulfonamido]phenyl}piperidin-4-yl)benzoic acid]	≥ 10000	–
CN(C)S(=O)(=O)c1ccc(S(=O)(=O)Nc2ccccc2N2CCC(C)(c3ccccc3Cl)CC2)cc1 [Compound A-183, N4-{2-[4-(2-chlorophenyl)-4-methylpiperidin-1-yl]phenyl}-N1,N1-dimethylbenzene-1,4-disulfonamide]	≤ 2000	–
COc1ccc(Cl)cc1CS(=O)(=O)Nc1ccccc1N1CCN(C(=O)C(C)(C)C)CC1 [Compound A-563, 1-(5-chloro-2-methoxyphenyl)-N-{2-[4-(2,2-dimethylpropanoyl)piperazin-1-yl]phenyl}methanesulfonamide]	≥ 10000	–
COc1ccc(S(=O)(=O)Nc2ccccc2N2CCN(C(C)C(F)(F)F)CC2)cc1 (stereo not drawn) [Compound A-531, 4-methoxy-N-{2-[4-(1,1,1-trifluoropropan-2-yl)piperazin-1-yl]phenyl}benzene-1-sulfonamide]	≤ 2000	–
CN(C)S(=O)(=O)c1ccc(S(=O)(=O)Nc2ccccc2N2CCC(C3CCOCC3)CC2)cc1 [Compound A-548, N1,N1-dimethyl-N4-{2-[4-(oxan-4-yl)piperidin-1-yl]phenyl}benzene-1,4-disulfonamide]	≤ 2000	–
COCC1(C)CCN(c2ccccc2NS(=O)(=O)c2ccc(C3CC3(F)F)cc2)CC1 (stereo not drawn) [Compound A-650, 4-(2,2-difluorocyclopropyl)-N-{2-[4-(methoxymethyl)-4-methylpiperidin-1-yl]phenyl}benzene-1-sulfonamide]	≤ 2000	–
CC(C)(C)C(=O)N1CCN(c2ccccc2NS(=O)(=O)Cc2ccccc2)CC1 [Compound A-410, N-{2-[4-(2,2-dimethylpropanoyl)piperazin-1-yl]phenyl}-1-phenylmethanesulfonamide]	2010 to 8000	–
CN(C)S(=O)(=O)c1ccc(S(=O)(=O)Nc2ccccc2N2CCN(C(=O)C3CCCC3(F)F)CC2)cc1 (stereo not drawn) [Compound A-459, N4-{2-[4-(2,2-difluorocyclopentanecarbonyl)piperazin-1-yl]phenyl}-N1,N1-dimethylbenzene-1,4-disulfonamide]	2010 to 8000	–
O=S(=O)(Nc1ccccc1N1CCC(c2ccc(Cl)cc2F)CC1)c1c(F)cccc1F [Compound A-81, N-{2-[4-(4-chloro-2-fluorophenyl)piperidin-1-yl]phenyl}-2,6-difluorobenzene-1-sulfonamide]	≥ 10000	–
C[C@H]1COC[C@H](C)N1C[C@H]1CCN(c2c(F)cccc2NS(=O)(=O)c2ccc(S(=O)(=O)N(C)C)cc2)C1 (relative stereo) [Compound A-896, N4-{2-[(3R)-3-{[3,5-dimethylmorpholin-4-yl]methyl}pyrrolidin-1-yl]-3-fluorophenyl}-N1,N1-dimethylbenzene-1,4-disulfonamide]	≤ 2000	–
CC(c1cccc(F)c1N1CCC(CN2CCC(F)(F)C2)CC1)S(=O)(=O)c1ccc(S(=O)(=O)N(C)C)cc1 (stereo not drawn) [Compound A-805, 4-((1-(2-(4-((3,3-difluoropyrrolidin-1-yl)methyl)piperidin-1-yl)-3-fluorophenyl)ethyl)sulfonyl)-N,N-dimethylbenzenesulfonamide]	–	≤ 2000
